Measured values from patent US10639285B2 (Aurea Biolabs Private Limited, priority 2014, dated 2020).

Assay: Absorption of curcumin and white curcumin in the blood plasma (FIG. 3)
Assay type: in vivo

time of absorption in the blood plasma: 2 h
SMILES: COc1cc(C=CC(=O)CC(=O)C=Cc2ccc(O)c(OC)c2)ccc1O [curcumin, 1,7 bis (4-hydroxy-3-methoxy phenyl)-1,6 heptadiene-3,5-dione]
